Values belong to the compound of their own block, whether it stands above or below them. Activity calls are given as the source filed them. The rule behind the calls is not given here. Non-standard residues stand in square brackets, D forms with d. Residues, ends and D or L forms follow the SMILES beside them. Phg = N[C@H](C(=O)O)c1ccccc1
How the values were obtained:
[1] = Stability in mouse serum at 5 uM measured after 4 hrs by HPLC analysis; type: ADME, cell-free; conditions: for Stability: serum, 4 h, 5 µM
[2] = Antiproliferative activity against human SK-RC-20 cells assessed as inhibition of cell growth measured at 24 hrs by MTT assay; type: functional, cell-based; conditions: SK-RC-20, 24 h
[3] = Binding affinity to Syntenin PDZ1 domain (unknown origin) assessed as dissociation constant by MST analysis; design: species or system Homo sapiens
[4] = Antiproliferative activity against human SK-RC-20 cells assessed as inhibition of cell growth measured at 48 hrs by MTT assay; type: functional, cell-based; conditions: SK-RC-20, 48 h
[5] = Antiproliferative activity against human SK-RC-20 cells assessed as inhibition of cell growth measured at 72 hrs by MTT assay; type: functional, cell-based; conditions: SK-RC-20, 72 h
A498 = test: Antiproliferative activity against human A498 cells assessed as inhibition of cell growth measured after 24 to 72 hrs by MTT assay; type: functional, cell-based; conditions: time 24-72 hrs
SK-RC-20 [6] = test: Downregulation of MMP2 mRNA expression in human SK-RC-20 cells at 50 to 100 nM by RT-PCR analysis; type: functional, cell-based; conditions: dose 50-100 nM
CAKI-1 = test: Antiproliferative activity against human CAKI-1 cells assessed as inhibition of cell growth measured after 24 to 72 hrs by MTT assay; type: functional, cell-based; conditions: time 24-72 hrs
SK-RC-20 [7] = test: Antitumor activity in human SK-RC-20 cells xenografted in male BALB/c nude mouse model assessed as reduction in tumor volume at 5 to 15 mg/kg measured every three days for 15 days; type: functional, organism-based; conditions: dose 5-15 mg/kg, time 15.0 day
SK-RC-20 [8] = test: Binding affinity to immobilized Syntenin in human SK-RC-20 cells at 5 uM incubated for 2 hrs by pull down assay; type: cell-based
UO-31 = test: Antiproliferative activity against human UO-31 cells assessed as inhibition of cell growth measured after 24 to 72 hrs by MTT assay; type: functional, cell-based; conditions: time 24-72 hrs
KMRC-1 = test: Antiproliferative activity against human KMRC-1 cells assessed as inhibition of cell growth measured after 24 to 72 hrs by MTT assay; type: functional, cell-based; conditions: time 24-72 hrs
[9] = Toxicity in male BALB/c nude mouse assessed as change in body weight at 5 to 15 mg/kg measured every three days for 15 days; type: organism-based; conditions: in vivo, 360 h, dose 5-15 mg/kg, time 15 day
SK-RC-20 [10] = test: Antitumor activity in human SK-RC-20 cells xenografted in male BALB/c nude mouse model assessed as inhibition of tumor growth at 15 mg/kg measured every three days for 15 days; type: functional, organism-based; conditions: time 15.0 day
SK-RC-20 [11] = test: Downregulation of MT1-MMP mRNA expression in human SK-RC-20 cells at 50 to 100 nM by RT-PCR analysis; type: functional, cell-based; conditions: dose 50-100 nM

- Stability [1]: Unstable
SMILES: CC[C@H](C)[C@H](NC(=O)[C@H](CC(=O)O)NC(=O)[C@@H](NC(=O)[C@@H](NC(=O)[C@H](Cc1c[nH]c2ccccc12)NC(=O)[C@H](Cc1cnc[nH]1)NC(=O)[C@@H](N)CO)[C@@H](C)O)[C@@H](C)CC)C(=O)O (H-SHWTIDI-OH)

- Kd [3]: 0.3 nM
- Stability [1]: Unstable
SMILES: CC[C@H](C)[C@H](NC(=O)[C@H](CC(=O)O)NC(=O)[C@@H](NC(=O)[C@@H](NC(=O)[C@H](Cc1c[nH]c2ccccc12)NC(=O)[C@H](Cc1cnc[nH]1)NC(=O)[C@H](CO)NC(=O)[C@@H](CCCNC(=N)N)NC(=O)[C@H](CCCNC(=N)N)NC(=O)[C@@H](CCCNC(=N)N)NC(=O)[C@H](CCCNC(=N)N)NC(=O)[C@@H](CCCNC(=N)N)NC(=O)CNC(=O)[C@@H](CCCNC(=N)N)NC(=O)[C@H](CCCNC(=N)N)NC(=O)[C@@H](CCCNC(=N)N)NC(C)=O)C(C)(C)C)C1CCCCC1)C(=O)O
- IC50 [2]: 22100 nM
- IC50 [4]: 14400 nM
- IC50 [5]: 9710 nM

- Kd [3]: 6.15 nM
- remaining at 4 h, 5 µM ([1]; mouse serum, read-out: Stability): ~80%
SMILES: CC[C@H](C)[C@H](NC(=O)[C@H](CC(=O)O)NC(=O)[C@@H](NC(=O)[C@@H](NC(=O)[C@H](Cc1c[nH]c2ccccc12)NC(=O)[C@H](CCCCN)NC(=O)[C@@H](NC(C)=O)[C@@H](C)O)C(C)C)c1ccccc1)C(N)=O (Ac-TKWV[Phg]DI-NH2)
- Activity (A498): Active
- IC50 [2]: 1240 nM
- Activity (SK-RC-20 [6]): Active
- IC50 [4]: 910 nM
- Activity (CAKI-1): Active
- IC50 [5]: 560 nM
- Activity (SK-RC-20 [7]): Active
- Activity (SK-RC-20 [8]): Active
- Activity (UO-31): Active
- Activity (KMRC-1): Active
- Activity [9]: Toxic
- Activity (SK-RC-20 [10]): Active
- Activity (SK-RC-20 [11]): Active

- Kd [3]: 34.1 nM
SMILES: CC[C@H](C)[C@H](NC(=O)[C@H](CC(=O)O)NC(=O)[C@@H](NC(=O)[C@@H](NC(=O)[C@H](Cc1cnc[nH]1)NC(=O)[C@@H](CCCCN)NC(=O)[C@@H](NC(C)=O)[C@@H](C)O)C(C)C)c1ccccc1)C(N)=O

- Kd [3]: 9.07 nM
SMILES: CC[C@H](C)[C@H](NC(=O)[C@H](CC(=O)O)NC(=O)[C@@H](NC(=O)[C@@H](NC(=O)[C@H](Cc1c[nH]c2ccccc12)NC(=O)[C@@H](CCCCN)NC(=O)[C@H](C)NC(C)=O)C(C)C)c1ccccc1)C(N)=O

- Kd [3]: 28.3 nM
SMILES: CC[C@H](C)[C@H](NC(=O)[C@@H](NC(=O)[C@@H](NC(=O)[C@@H](NC(=O)[C@H](Cc1c[nH]c2ccccc12)NC(=O)[C@@H](CCCCN)NC(=O)[C@@H](NC(C)=O)[C@@H](C)O)C(C)C)c1ccccc1)C(C)C)C(N)=O

- Kd [3]: 15.2 nM
SMILES: CC[C@H](C)[C@H](NC(=O)[C@H](CC(=O)O)NC(=O)[C@@H](NC(=O)[C@@H](NC(=O)[C@H](Cc1c[nH]c2ccccc12)NC(=O)[C@H](NC(=O)[C@@H](NC(C)=O)[C@@H](C)O)C(C)C)C(C)C)c1ccccc1)C(N)=O

- Kd [3]: 19.7 nM
SMILES: CC[C@H](C)[C@H](NC(=O)[C@H](CC(=O)O)NC(=O)[C@H](NC(=O)[C@@H](NC(=O)[C@H](Cc1c[nH]c2ccccc12)NC(=O)[C@@H](CCCCN)NC(=O)[C@@H](NC(C)=O)[C@@H](C)O)C(C)C)C(C)C)C(N)=O
